Reference: US20100303790A1, “USE OF BILIVERDIN REDUCTASE (BVR) AND BVR PEPTIDE FRAGMENTS TO TREAT CORONARY DISORDERS” (UNIVERSITY OF ROCHESTER, priority 2009, published 2010)

Test system: rat neonatal cardiomyocytes
Assay: BVR, HO-2 and HO-1 protein levels in rat neonatal cardiomyocytes (western blot)
Format: cell-based
Experimental: Neonatal Rat Cardiomyocytes: Primary cultures of neonatal rat cardiomyocytes were prepared as described previously (Ding et al., “Functional Role of Phosphodiesterase 3 in Cardiomyocyte Apoptosis: Implication in Heart Failure,” Circulation 111:2469-2476 (2005) which is hereby incorporated by reference in its entirety). Briefly, fragmented ventricular tissue from 1-2 day old Sprague-Dawley rats was subjected to multiple rounds of enzymatic digestion with collagenase II (Worthington, Lakewood, N.J.). The cells were then collected by low speed centrifugation at 4° C. Non-myocytes were removed by two rounds of pre-plating the cells on culture dishes. The enriched cardiomyocytes were cultured in DMEM with 10% FBS and 10% horse serum. The day after cell adhesion, 10 μM cytosine 1-β-D-arabinofuranoside (Sigma, St. Louis, Mo.) was added to inhibit the growth of contaminating non-myocytes.
Plasmids and Constructs: Adenovirus for expression of an endogenous PKA inhibitor (PKA251 bp) was prepared as described previously (Ding et al., “Functional Role of Phosphodiesterase 3 in Cardiomyocyte Apoptosis: Implication in Heart Failure,” Circulation 111:2469-2476 (2005), which is hereby incorporated by reference in its entirety). Rat BVR and HO-2 siRNA were designed based on the human sequences (Miralem et al., “Small Interference RNA-Mediated Gene Silencing of Human Biliverdin Reductase, but not that of Heme Oxygenase-1, Attenuates Arsenite-Mediated Induction of the Oxygenase and Increases Apoptosis in 293A Kidney Cells,” J Biol Chem 280:17084-17092 (2005), which is hereby incorporated by reference in its entirety). The BVR targeting site is at nucleotides 94-114, and the HO-2 targeting site is at nucleotides 73-93, downstream of the start codon in each case. Oligonucleotides containing the sequence of a 21 nucleotide small interference RNA were synthesized as follows: BVR siRNA, 5′-GATCCCC ([…]) TTCAAGAG ([…]) TTTTTGGAAA (SEQ ID NO:61) and 5′-AGCTTTTCCAAAAA ([…]) TCTCTTGAA ([…]) GGG (SEQ ID NO:62; HO-2 siRNA, 5′-GATCCCC ([…]) TTCAAGAGA ([…]) TTTTTGGAAA (SEQ ID NO:63) and 3′-AGCTTTTCCAAAAA ([…]) TCTCTTGAA ([…]) GGG (SEQ ID NO:64). Complementary oligonucleotides were annealed, then ligated into pSuper-Retro vector (OligoEngine Co. Seattle, Wash.). E. coli clones containing the desired constructs were identified by restriction analysis and verified by DNA sequencing. The retroviral DNA vectors for generating BVR si-rRNA and […] were transfected into the HEK293A packaging cell line, and the supernatant containing the expressed si-rBVR or si-rHO-2 retrovirus was then titrated in NIH3T3 cells. Retrovirus expressing siRNA was used to infect cells at a multiplicity of infection of 4 plaque-forming units/cell. The plasmid pcDNA-hBVR has previously been described (Lerner-Marmarosh et al., “Human Biliverdin Reductase: A Member of the Insulin Receptor Substrate Family with Serine/Threonine/Tyrosine Kinase Activity,” Proc Natl Acad Sci US A 102:7109-7114 (2005), which is hereby incorporated by reference in its entirety); pcDNA-hHO2 was constructed by cloning the HO-2 open reading frame into pcDNA3. […]

[1] = 10 μM isoproterenol, western blot

`CC(C)NCC(O)c1ccc(O)c(O)c1` (centres unmarked) [isoproterenol] was tested, and the “time for which increased levels of both proteins (BVR, HO-2) remained stable” value (10 μM isoproterenol) was “up to 96 hours”, the “time by which BVR protein expression was elevated” value [1] was ≤ 8 h and the “time by which HO-2 protein level began to increase” value [1] was ≤ 12 h. For the same compound, the “time by which HO-2 protein level reached a plateau” value [1] was ≤ 24 h and the HO-1 protein expression (isoproterenol treatment up to 96 hours) was “not detected”.
